Measured values as given in ChEMBL document CHEMBL3124853, “Synthesis and anti-Candidal activity of N-(4-aryl/cyclohexyl)-2-(pyridine-4-yl carbonyl) hydrazinecarbothioamide” (Bioorg Med Chem Lett, 2014).
Converted amounts (≈) assume the structure as drawn.

Legend:
A549 = assay: Cytotoxicity against human A549 cells after 48 hrs by MTT assay; type: cell-based; settings: A549, 48 h
[1] = Cytotoxicity against human HT1080 cells after 48 hrs by MTT assay; type: cell-based; settings: HT-1080, 48 h
HepG2 = assay: Cytotoxicity against human HepG2 cells after 48 hrs by MTT assay; type: cell-based; settings: HepG2, 48 h
[2] = Cytotoxicity against human MCF10A cells after 48 hrs by WST1 assay; type: cell-based; settings: MCF-10A
Candida [3] = assay: Antifungal activity against Candida sp. clinical isolate 12810 derived from blood by microbroth dilution method; type: functional
Candida [4] = assay: Antifungal activity against Candida sp. clinical isolate 12485 derived from urine by microbroth dilution method; type: functional; settings: clinical isolate 12485, Urine
Candida [5] = assay: Antifungal activity against Candida sp. clinical isolate 12341 derived from urine by microbroth dilution method; type: functional; settings: clinical isolate 12341, Urine
Candida [6] = assay: Antifungal activity against Candida sp. clinical isolate 300 derived from urine by microbroth dilution method; type: functional; settings: clinical isolate 300, Urine
Candida [7] = assay: Antifungal activity against Candida sp. clinical isolate 178 derived from high vaginal swabs by microbroth dilution method; type: functional
Candida [8] = assay: Antifungal activity against Candida sp. clinical isolate 11972 derived from high vaginal swabs by microbroth dilution method; type: functional
Candida albicans = assay: Antifungal activity against Candida albicans ATCC 66027 by microbroth dilution method; type: functional
Candida [9] = assay: Antifungal activity against Candida sp. clinical isolate 13184 derived from high vaginal swabs by microbroth dilution method; type: functional
Candida parapsilosis = assay: Antifungal activity against Candida parapsilosis ATCC 22019 by microbroth dilution method; type: functional; settings: Lodderomyces parapsilosis
Candida tropicalis = assay: Antifungal activity against Candida tropicalis ATCC 66029 by microbroth dilution method; type: functional

Compound | IC50 (A549) | IC50 [1] | IC50 (HepG2) | IC50 [2] | MIC (Candida [3]) | MIC (Candida [4]) | MIC (Candida [5]) | MIC (Candida [6]) | MIC (Candida [7]) | MIC (Candida [8]) | MIC (Candida albicans) | MIC (Candida [9]) | MIC (Candida parapsilosis) | MIC (Candida tropicalis)
O=C(NNC(=S)Nc1ccccc1)c1ccncc1 | 2040 µg/mL (≈ 7500 µM) | 684 µg/mL (≈ 2510 µM) | 716 µg/mL (≈ 2630 µM) | > 300 µM | 0.78 µg/mL (≈ 2.86 µM) | 1.6 µg/mL (≈ 5.88 µM) | 1.6 µg/mL (≈ 5.88 µM) | 0.19 µg/mL (≈ 0.698 µM) | 6.25 µg/mL (≈ 22.9 µM) | 6.25 µg/mL (≈ 22.9 µM) | 0.19 µg/mL (≈ 0.698 µM) | 12.5 µg/mL (≈ 45.9 µM) | 0.39 µg/mL (≈ 1.43 µM) | 1.6 µg/mL (≈ 5.88 µM)
COc1ccccc1N=C(S)NNC(=O)c1ccncc1 |  |  |  | > 300 µM | > 50 µg/mL | > 50 µg/mL | > 50 µg/mL | > 50 µg/mL | > 50 µg/mL | > 50 µg/mL | > 50 µg/mL | > 50 µg/mL | > 50 µg/mL | > 50 µg/mL
O=C(NNC(=S)Nc1ccc(S(=O)(=O)Nc2ncccn2)cc1)c1ccncc1 |  |  |  | > 300 µM | > 50 µg/mL | > 50 µg/mL | > 50 µg/mL | > 50 µg/mL | > 50 µg/mL | > 50 µg/mL | > 50 µg/mL | > 50 µg/mL | > 50 µg/mL | > 50 µg/mL
CCC(C)n1ncn(-c2ccc(N3CCN(c4ccc(OCC5COC(Cn6cncn6)(c6ccc(Cl)cc6Cl)O5)cc4)CC3)cc2)c1=O (configuration not stated) [ITRACONAZOLE] | 182 µg/mL (≈ 258 µM) | 202 µg/mL (≈ 286 µM) | 142 µg/mL (≈ 201 µM) | > 300 µM | 0.25 µg/mL (≈ 0.354 µM) | 0.04 µg/mL (≈ 0.0567 µM) | 0.09 µg/mL (≈ 0.128 µM) | 0.09 µg/mL (≈ 0.128 µM) | 0.19 µg/mL (≈ 0.269 µM) | 0.02 µg/mL (≈ 0.0283 µM) | 1.56 µg/mL (≈ 2.21 µM) | 0.39 µg/mL (≈ 0.553 µM) | 0.04 µg/mL (≈ 0.0567 µM) | 0.19 µg/mL (≈ 0.269 µM)
Cc1ccc(NC(=S)NNC(=O)c2ccncc2)cc1 |  |  |  | 229 µM | > 50 µg/mL | > 50 µg/mL | > 50 µg/mL | > 50 µg/mL | > 50 µg/mL | > 50 µg/mL | > 50 µg/mL | > 50 µg/mL | > 50 µg/mL | > 50 µg/mL
COc1ccc(NC(=S)NNC(=O)c2ccncc2)cc1 |  |  |  | 47.5 µM | > 50 µg/mL | > 50 µg/mL | > 50 µg/mL | > 50 µg/mL | > 50 µg/mL | > 50 µg/mL | > 50 µg/mL | > 50 µg/mL | > 50 µg/mL | > 50 µg/mL
CCc1cccc(NC(=S)NNC(=O)c2ccncc2)c1 |  |  |  | > 300 µM | > 50 µg/mL | > 50 µg/mL | > 50 µg/mL | > 50 µg/mL | > 50 µg/mL | > 50 µg/mL | > 50 µg/mL | > 50 µg/mL | > 50 µg/mL | > 50 µg/mL
O=C(NNC(=S)Nc1ccc(Cl)cc1)c1ccncc1 | 410 µg/mL (≈ 1340 µM) | 540 µg/mL (≈ 1760 µM) | 1200 µg/mL (≈ 3910 µM) | > 300 µM | 0.09 µg/mL (≈ 0.293 µM) | 0.39 µg/mL (≈ 1.27 µM) | 0.19 µg/mL (≈ 0.619 µM) | 0.39 µg/mL (≈ 1.27 µM) | 0.19 µg/mL (≈ 0.619 µM) | 0.19 µg/mL (≈ 0.619 µM) | 0.09 µg/mL (≈ 0.293 µM) | 0.78 µg/mL (≈ 2.54 µM) | 0.19 µg/mL (≈ 0.619 µM) | 0.19 µg/mL (≈ 0.619 µM)
O=C(NNC(=S)Nc1ccccc1[N+](=O)[O-])c1ccncc1 | 813 µg/mL (≈ 2560 µM) | 833 µg/mL (≈ 2630 µM) | 410 µg/mL (≈ 1290 µM) | > 300 µM | 0.39 µg/mL (≈ 1.23 µM) | 0.39 µg/mL (≈ 1.23 µM) | 6.25 µg/mL (≈ 19.7 µM) | 1.6 µg/mL (≈ 5.04 µM) | 0.39 µg/mL (≈ 1.23 µM) | 6.25 µg/mL (≈ 19.7 µM) | 1.6 µg/mL (≈ 5.04 µM) | 0.78 µg/mL (≈ 2.46 µM) | 6.25 µg/mL (≈ 19.7 µM) | 0.19 µg/mL (≈ 0.599 µM)
O=C(NNC(=S)Nc1ccc([N+](=O)[O-])cc1)c1ccncc1 |  |  |  | > 300 µM | > 50 µg/mL | > 50 µg/mL | > 50 µg/mL | > 50 µg/mL | > 50 µg/mL | > 50 µg/mL | > 50 µg/mL | > 50 µg/mL | > 50 µg/mL | > 50 µg/mL
Cc1cccc(NC(=S)NNC(=O)c2ccncc2)c1 |  |  |  | > 300 µM | > 50 µg/mL | > 50 µg/mL | > 50 µg/mL | > 50 µg/mL | > 50 µg/mL | > 50 µg/mL | > 50 µg/mL | > 50 µg/mL | > 50 µg/mL | > 50 µg/mL
O=C(NNC(=S)Nc1ccc(I)cc1)c1ccncc1 |  |  |  | > 300 µM | 0.39 µg/mL (≈ 0.979 µM) | 0.78 µg/mL (≈ 1.96 µM) | 0.19 µg/mL (≈ 0.477 µM) | 1.6 µg/mL (≈ 4.02 µM) | 0.09 µg/mL (≈ 0.226 µM) | 0.19 µg/mL (≈ 0.477 µM) | 0.39 µg/mL (≈ 0.979 µM) | 1.6 µg/mL (≈ 4.02 µM) | 0.19 µg/mL (≈ 0.477 µM) | 0.19 µg/mL (≈ 0.477 µM)
O=C(O)c1cn(C2CC2)c2cc(N3CCNCC3)c(F)cc2c1=O [CIPROFLOXACIN] |  |  |  | > 300 µM |  |  |  |  |  |  |  |  |  | 
O=C(NNC(=S)NC1CCCCC1)c1ccncc1 |  |  |  | > 300 µM | > 50 µg/mL | > 50 µg/mL | > 50 µg/mL | > 50 µg/mL | > 50 µg/mL | > 50 µg/mL | > 50 µg/mL | > 50 µg/mL | > 50 µg/mL | > 50 µg/mL
O=C(NNC(=S)Nc1cccc(Cl)c1)c1ccncc1 |  |  |  | > 300 µM | 0.09 µg/mL (≈ 0.293 µM) | 6.25 µg/mL (≈ 20.4 µM) | 0.78 µg/mL (≈ 2.54 µM) | 0.78 µg/mL (≈ 2.54 µM) | 6.25 µg/mL (≈ 20.4 µM) | 0.39 µg/mL (≈ 1.27 µM) | 0.19 µg/mL (≈ 0.619 µM) | 6.25 µg/mL (≈ 20.4 µM) | 0.78 µg/mL (≈ 2.54 µM) | 1.6 µg/mL (≈ 5.22 µM)
COc1cccc(NC(=S)NNC(=O)c2ccncc2)c1 |  |  |  | > 300 µM | > 50 µg/mL | > 50 µg/mL | > 50 µg/mL | > 50 µg/mL | > 50 µg/mL | > 50 µg/mL | > 50 µg/mL | > 50 µg/mL | > 50 µg/mL | > 50 µg/mL
CCOc1ccc(NC(=S)NNC(=O)c2ccncc2)cc1 |  |  |  | > 300 µM | > 50 µg/mL | > 50 µg/mL | > 50 µg/mL | > 50 µg/mL | > 50 µg/mL | > 50 µg/mL | > 50 µg/mL | > 50 µg/mL | > 50 µg/mL | > 50 µg/mL
Cc1cccc(C)c1NC(=S)NNC(=O)c1ccncc1 |  |  |  | > 300 µM | 1.6 µg/mL (≈ 5.33 µM) | 6.25 µg/mL (≈ 20.8 µM) | 6.25 µg/mL (≈ 20.8 µM) | 0.78 µg/mL (≈ 2.6 µM) | 6.25 µg/mL (≈ 20.8 µM) | 12.5 µg/mL (≈ 41.6 µM) | 0.78 µg/mL (≈ 2.6 µM) | 6.25 µg/mL (≈ 20.8 µM) | 0.78 µg/mL (≈ 2.6 µM) | 0.78 µg/mL (≈ 2.6 µM)
CC(=O)Nc1ccc(NC(=S)NNC(=O)c2ccncc2)cc1 |  |  |  | > 300 µM | 1.6 µg/mL (≈ 4.86 µM) | 1.6 µg/mL (≈ 4.86 µM) | 1.6 µg/mL (≈ 4.86 µM) | 1.6 µg/mL (≈ 4.86 µM) | 0.19 µg/mL (≈ 0.577 µM) | 0.78 µg/mL (≈ 2.37 µM) | 0.39 µg/mL (≈ 1.18 µM) | 1.6 µg/mL (≈ 4.86 µM) | 0.19 µg/mL (≈ 0.577 µM) | 0.19 µg/mL (≈ 0.577 µM)
Cc1ccccc1N=C(S)NNC(=O)c1ccncc1 |  |  |  | > 300 µM | > 50 µg/mL | > 50 µg/mL | > 50 µg/mL | > 50 µg/mL | > 50 µg/mL | > 50 µg/mL | > 50 µg/mL | > 50 µg/mL | > 50 µg/mL | > 50 µg/mL
